In US20080311189A1, “Compositions Comprising Organometallic Molybdenum Compounds For Treating Cancer” (priority 2004, published 2008):

How the values were obtained:
Format in all cases: cell-based
[1] = tested on: Ehrlich ascites mouse tumor cell line; experiment: MTT viability assay, Ehrlich ascites cells; details: Ehrlich ascites mouse cancer cells, 3 hours incubation with drug, read 24 hours after removal of the drug
Experimental: (§1) The cytotoxic activity of theses complexes was evaluated against 6 different cell lines, using the MTT assay (3-(4,5-dimethylthiazol-2-yl)-2,5-diphenyltetrazolium bromide assay) (Mosmann, T. J. Immunol. Methods, 1983, 65, 55-63) to measure the cell viability.
(§2) Cell lines were routinely propagated in 75 cm^2 tissue culture flasks (SARSTEDT, Leicester, U.K.), in a humidified atmosphere of 5% CO2 in air at 37° C., and were trypsinized and harvested into new medium every 2-4 days, just before confluence. Cell lines were cultured for a minimum of two passages after thawing prior to experimentation.
The Ehrlich ascites mouse tumor cell line was purchased at ECACC (European Collection of Cell culture) and propagated in NCTC-135 medium (Sigma, ref. N3262) 2 mM in L-glutamine, supplemented with 10% heat-inactivated fetal bovine serum (FBS) and 1% penicillin/streptomycin.
(§3) This assay is based on the capacity of mitochondrial dehydrogenase enzymes in living cells to convert the yellow water soluble substrate (MTI) into a dark blue product which is quantified by spectrophotometric means. Briefly, exponentially growing cells were trypsinized, dispensed in sixplicates into 96-well tissue culture plates and allowed to attach overnight. The next day the cells were treated with various concentrations of the drug, ranging from 1 to 1000 μM. By addition of an adequate volume of a freshly prepared DMSO solution of the compound to the medium, the desired test concentrations were obtained. For. each test concentration and for the control which contained the corresponding amount of DMSO, 6 wells were used. After an incubation period of 3 hours the cells were carefully washed (twice) with phosphate buffer saline (PBS) and 100 μl of medium were added. The cells were incubated for 24 hours and 10 μl of a MTT solution (5 mg/ml) were added to each well. The tetrazolium/formazan reaction was allowed to proceed for 4 hours and the medium was carefully removed. The dark blue formazan crystals were dissolved by adding 150 μl of DMSO and agitating for 15 minutes in a plate shaker. The optical density was measured at […] using a 96-well multiscanner autoreader. The percentage of survival was calculated using the formula: % survival=live cell number [test]/live cell number [control]×100. The IC50 values were calculated by nonlinear regression analysis using the graphed Prism software (GraphPad Software, Inc., San Diego, Calif.) and are compiled in tables 2-4.
(§4) Using the colorimetric mitochondrial function-based MTT viability assay, we examined the effects of molybdenum (II) complexes against 6 different cell lines, by measuring the cellular proliferation at 8 different concentrations ranging from 1 to 1000 μM, 24 hours after removal of the drug. The IC50 values were calculated from dose-response curves obtained by nonlinear regression analysis. FIG. 4 represent and compare dose-response curves obtained for several molybdenum compounds against the Ehrlich ascites mouse cell line.

[2] = tested on: non-tumoral MRC-5 human fibroblast; experiment: MTT viability assay, non-tumoral human fibroblasts; details: MRC-5 human fibroblasts, 3 hours incubation with drug, 24 hours after removal
Experimental: as §1, §2
The […] cells, secondary human lung fibroblasts, were purchased at ECACC. The cells were grown in MEM with Earls' Salt and L-glutamine (Gibco, ref. 61100-053), supplemented with 10% fetal bovine serum (FBS) and 1% neomycin.
as §3, §4

[3] = tested on: GP-202 gastric human cell line; experiment: MTT viability assay, GP-202 cells; details: 3 hours incubation with drug, 24 hours after removal, read-out: IC50 VALUE, Human tumoral cell lines, Gastric GP-202
Experimental: as §1, §2
(§5) The tumnoral GP-202 and GP-220 gastric human cell lines were established at IPATIMUP (Instituto de Patologia e Imunologia Molecular da Universidade do Porto). […]
(§6) This assay is based on the capacity of mitochondrial dehydrogenase enzymes in living cells to convert the yellow water soluble substrate (MTI) into a dark blue product which is quantified by spectrophotometric means. […] The optical density was measured at […] using a 96-well multiscanner autoreader. The percentage of survival was calculated using the formula: % survival=live cell number [test]/live cell number [control]×100. The IC50 values were calculated by nonlinear regression analysis using the graphed Prism software (GraphPad Software, Inc., San Diego, Calif.) and are compiled in tables 2-4. […]

[4] = tested on: GP-220 gastric human cell line; experiment: MTT viability assay, GP-220 cells; details: 3 hours incubation with drug, 24 hours after removal, read-out: IC50 VALUE, Human tumoral cell lines, Gastric GP-220
Experimental: as §1, §2, §5, §6

[5] = tested on: MKN45 gastric human cell line; experiment: MTT viability assay, MKN-45 cells; details: 3 hours incubation with drug, 24 hours after removal, read-out: IC50 VALUE, Human tumoral cell lines, Gastric MKN-45
Experimental: as §1, §2
(§7) The tumoral MKN45 gastric and HT-29 colorectal human cell lines were purchased at ECACC. […]
as §6

[6] = tested on: HT-29 colorectal human cell line; experiment: MTT viability assay, HT-29 cells; details: 3 hours incubation with drug, 24 hours after removal, read-out: IC50 VALUE, Human tumoral cell lines, Colon HT-29
Experimental: as §1, §2, §7, §6

**Q.** How did the IC50 [1] turn out when “(η^3-C3H5)Mo(CO)2(1,10-phen)Br [Compound 24]” was run?
**A.** The IC50 was 7.3 ± 1 µM.

**Q.** Which results are given for “(η^3-C3H5)Mo(CO)2(2,3-Me2-p-tolilDAB)Br [Compound 23]”?
**A.** IC50 [1]: 59.1 ± 1.1 µM; IC50 [2]: 104 ± 1.1 µM

**Q.** Which results are given for “(η^3-C3H5)Mo(CO)2(4,7-diphenyl-1,10-phen)Br [Compound 25]”?
**A.** IC50 [1]: 12.5 ± 1.2 µM; IC50 [2]: 12.1 ± 1.1 µM

**Q.** [(η^5-Cp)Mo(CO)2dppe]BF4 [Compound 21] was tested. Which IC50 [1] did it give?
**A.** Its IC50 is 20 ± 1.1 µM.

**Q.** What about the IC50 [2] of the same substance?
**A.** Its IC50 is 24 ± 1 µM.

**Q.** “[(η^5-Cp)Mo(CO)2trithiane]BF4 [Compound 19]” was tested. Which IC50 [1] did it give?
**A.** The IC50 was 142.1 ± 1.1 µM.

**Q.** What does the source list for [(η^5-Cp)Mo(CO)2tten]BF4 [Compound 20]?
**A.** IC50 [1]: 138.9 ± 1.2 µM; IC50 [2]: 139.8 ± 1.2 µM

**Q.** “[(η^5-Cp)Mo(CO)2{5,6-Ph2-3-(2-py)-1,2,4-Tz}]BF4 [Compound 22]” was tested. Which IC50 [1] did it give?
**A.** The IC50 was 105 ± 1.2 µM.

**Q.** What about the IC50 [2] of the same substance?
**A.** The IC50 was 68.9 ± 1.1 µM.

**Q.** “[(η^5-Ind)Mo(CO)2(1,4,7,10-tetrt)]BF4 [Compound 17]” was tested. Which IC50 [1] did it give?
**A.** Its IC50 is 19.9 ± 1.1 µM.

**Q.** What about the IC50 [2] of the same substance?
**A.** The IC50 was 213.5 ± 1.1 µM.

**Q.** Which IC50 [1] does the source give for “[(η^5-Ind)Mo(CO)2(2,2′-biq)]BF4 [Compound 8]” here?
**A.** The IC50 was 35 ± 1.1 µM.

**Q.** And the IC50 [3]?
**A.** Its IC50 is 5 ± 1.1 µM.

**Q.** What about the IC50 [4] of the same substance?
**A.** The IC50 was 2.7 ± 1 µM.

**Q.** What about the IC50 [5] of the same substance?
**A.** Its IC50 is 4.4 ± 1 µM.

**Q.** What about the IC50 [6] of the same substance?
**A.** The IC50 was 13.3 ± 1.1 µM.

**Q.** And the IC50 [2]?
**A.** The IC50 was 13 ± 1 µM.

**Q.** With “[(η^5-Ind)Mo(CO)2(4,4′-Ph2-2,2′-bpy)]BF4 [Compound 2]” as the substance, how does the IC50 [1] read?
**A.** The IC50 was 13.7 ± 1.1 µM.

**Q.** Which results are given for “[(η^5-Ind)Mo(CO)2(4,7-Me2-1,10-phen)]BF4 [Compound 7]”?
**A.** IC50 [1]: 29.5 ± 1 µM; IC50 [2]: 64.4 ± 1.1 µM

**Q.** “[(η^5-Ind)Mo(CO)2(4,7-Ph2-1,10-phen)]BF4 [Compound 6]” was tested. Which IC50 [1] did it give?
**A.** The IC50 was 5.7 ± 1 µM.

**Q.** What about the IC50 [3] of the same substance?
**A.** Its IC50 is 4.2 ± 1.1 µM.

**Q.** What about the IC50 [4] of the same substance?
**A.** Its IC50 is 1.8 ± 1.1 µM.

**Q.** What about the IC50 [5] of the same substance?
**A.** The IC50 was 4.6 ± 1.1 µM.

**Q.** What about the IC50 [6] of the same substance?
**A.** The IC50 was 6.6 ± 1 µM.

**Q.** What about the IC50 [2] of the same substance?
**A.** The IC50 was 14.9 ± 1 µM.

**Q.** “[(η^5-Ind)Mo(CO)2(CYDAB)]BF4 [Compound 4]” was tested. Which IC50 [1] did it give?
**A.** The IC50 was 140.3 ± 1.2 µM.

**Q.** What about the IC50 [2] of the same substance?
**A.** Its IC50 is 75 ± 1.1 µM.

**Q.** Which IC50 [1] does the source give for “[(η^5-Ind)Mo(CO)2(NCMe)2]BF4 [Compound 18]” here?
**A.** The IC50 was 56.7 ± 1.7 µM.

**Q.** Which results are given for “[(η^5-Ind)Mo(CO)2(p-tolilDAB)]BF4 [Compound 3]”?
**A.** IC50 [1]: 6.6 ± 1 µM; IC50 [2]: 84.1 ± 1 µM

**Q.** For [(η^5-Ind)Mo(CO)2bpy]BF4 [Compound 1], which IC50 [1] is on record?
**A.** Its IC50 is 95.9 ± 1.1 µM.

**Q.** And the IC50 [2]?
**A.** The IC50 was 143.2 ± 1.1 µM.

**Q.** With [(η^5-Ind)Mo(CO)2dppe]BF4 [Compound 14] as the substance, how does the IC50 [1] read?
**A.** The IC50 was 5.8 ± 1.1 µM.

**Q.** What about the IC50 [2] of the same substance?
**A.** The IC50 was 20.3 ± 1.1 µM.

**Q.** With [(η^5-Ind)Mo(CO)2phen]BF4 [Compound 5] as the substance, how does the IC50 [1] read?
**A.** Its IC50 is 32.9 ± 1 µM.

**Q.** And the IC50 [2]?
**A.** The IC50 was 73.3 ± 1.1 µM.

**Q.** “[(η^5-Ind)Mo(CO)2trithiane]BF4 [Compound 15]” was tested. Which IC50 [1] did it give?
**A.** The IC50 was 20.7 ± 1 µM.

**Q.** And the IC50 [2]?
**A.** Its IC50 is 136.6 ± 1 µM.

**Q.** What does the source list for [(η^5-Ind)Mo(CO)2tten]BF4 [Compound 16]?
**A.** IC50 [1]: 8.4 ± 1.1 µM; IC50 [2]: 91 ± 1.1 µM

**Q.** How did the IC50 [1] turn out when “[(η^5-Ind)Mo(CO)2{1,2-Ph(NH2)2}]BF4 [Compound 13]” was run?
**A.** Its IC50 is 67.6 ± 1.2 µM.

**Q.** What about the IC50 [2] of the same substance?
**A.** Its IC50 is 73.7 ± 1.1 µM.

**Q.** Which IC50 [2] does the source give for “[(η^5-Ind)Mo(CO)2{5,6-Ph2-3-(2-py)-1,2,4-Tz}]BF4 [Compound 9]” here?
**A.** Its IC50 is 13.4 ± 1 µM.
